Literature values, collected in patent US20180085319A1, “METHODS AND COMPOSITIONS FOR TREATING CANCER” (priority 2016, published 2018).

Test system: anti-immunotoxin immune response

Row | Substance | effect on immune response to SS1P in mesothelioma patients (immunosuppressive treatment given with SS1P) | prevention of anti-immunotoxin immune response in patients (B cell depletion)
1 | cyclophosphamide and pentostatin [cyclophosphamide and pentostatin (CP/PS)] | only delayed the response to the immunotoxin | –
2 | Rituximab | – | ineffective in preventing anti-immunotoxin immune response
